In PubChem BioAssay AID330 (DTP/NCI, 2004):
Where “and” joins values, the source holds several entries; their conditions need not be identical. Equal entries are not always repeated. Toxic doses and inconclusive results are not listed. Peptide text beside a SMILES is read from it. * marks the point of attachment. Trt = c1ccc(C(c2ccccc2)(c2ccccc2)*)cc1; Cbz = O=C(OCc1ccccc1)*; OtBu = CC(C)(C)O*

System: P388 leukemia ip, CD2F1 mice, survival T/C
Experiment: NCI In Vivo Anticancer Drug Screen. Data for tumor model P388 Leukemia (intraperitoneal) in CD2F1 (CDF1) mice
Conditions: endpoint: median survival time, higher = longer survival
Outline: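 Mice carrying the transplanted tumor received test compound or vehicle. Survival was recorded in each group, and the value is the treated-group measurement divided by that of the vehicle-treated control group.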

[1] = dose: 50.0 mg/kg/injection, schedule: Q01DX005 (ip), vehicle: Klucel (hydroxypropylcellulose) (HPC)
[2] = dose: 100.0 mg/kg/injection, schedule: Q01DX005 (ip), vehicle: Klucel (hydroxypropylcellulose) (HPC)
[3] = dose: 50.0 mg/kg/injection, schedule: Q01DX005 (ip), vehicle: saline with Tween-80
[4] = dose: 100.0 mg/kg/injection, schedule: Q01DX005 (ip), vehicle: saline with Tween-80
[5] = dose: 50.0 mg/kg/injection, schedule: Q04DX003 (ip), vehicle: saline with Tween-80
[6] = dose: 100.0 mg/kg/injection, schedule: Q04DX003 (ip), vehicle: saline with Tween-80
[7] = dose: 200.0 mg/kg/injection, schedule: Q01DX005 (ip), vehicle: saline with Tween-80
[8] = dose: 12.5 mg/kg/injection, schedule: Q04DX003 (ip), vehicle: saline with Tween-80
[9] = dose: 25.0 mg/kg/injection, schedule: Q04DX003 (ip), vehicle: saline with Tween-80
[10] = dose: 60.0 mg/kg/injection, schedule: Q01DX005 (ip), vehicle: saline with Tween-80
[11] = dose: 240.0 mg/kg/injection, schedule: Q01DX005 (ip), vehicle: saline with Tween-80
[12] = dose: 120.0 mg/kg/injection, schedule: Q01DX005 (ip), vehicle: saline with Tween-80
[13] = dose: 100.0 mg/kg/injection, schedule: Q04DX003 (ip), vehicle: saline
[14] = dose: 200.0 mg/kg/injection, schedule: Q04DX003 (ip), vehicle: saline
[15] = dose: 100.0 mg/kg/injection, schedule: Q01DX009 (ip), vehicle: saline
[16] = dose: 200.0 mg/kg/injection, schedule: Q01DX009 (ip), vehicle: saline
[17] = dose: 400.0 mg/kg/injection, schedule: Q01DX009 (ip), vehicle: saline

CC(=O)NC(Cc1ccc(N(CCCl)CCCl)cc1)C(=O)NC(CC(C)C)C(=O)O (configuration not stated)
T/C (dose: 5.0 mg/kg/injection, schedule: Q04DX003 (ip), vehicle: water): 100 % of control | T/C (dose: 8.4 mg/kg/injection, schedule: Q04DX003 (ip), vehicle: saline with Tween-80): 111 % of control | T/C (dose: 10.0 mg/kg/injection, schedule: Q04DX003 (ip), vehicle: water): 95 % of control | T/C (dose: 18.9 mg/kg/injection, schedule: Q04DX003 (ip), vehicle: saline with Tween-80): 121 % of control | T/C (dose: 20.0 mg/kg/injection, schedule: Q04DX003 (ip), vehicle: water): 118 % of control | T/C (dose: 42.6 mg/kg/injection, schedule: Q04DX003 (ip), vehicle: saline with Tween-80): 173 % of control | T/C (dose: 64.0 mg/kg/injection, schedule: Q04DX003 (ip), vehicle: saline with Tween-80): 166 % of control | T/C (dose: 96.0 mg/kg/injection, schedule: Q04DX003 (ip), vehicle: saline with Tween-80): 180 % of control

COc1cc(OC(=O)NCCCl)cc(OC)c1OC
T/C [1]: 101 % of control | T/C [2]: 108 % of control | T/C (dose: 200.0 mg/kg/injection, schedule: Q01DX005 (ip), vehicle: Klucel (hydroxypropylcellulose) (HPC)): 92 % of control

COc1ccccc1N=NNc1ccc(S(=O)(=O)NC(C)=O)cc1
T/C [1]: 107 % of control | T/C [2]: 114 % of control

CC12C(=Nc3ccccc31)CCc1ccccc12 (configuration not stated)
T/C (dose: 50.0 mg/kg/injection, schedule: Q01DX005 (ip), vehicle: saline + Tween-80 + alcohol): 99 % of control | T/C (dose: 100.0 mg/kg/injection, schedule: Q01DX005 (ip), vehicle: saline + Tween-80 + alcohol): 100 % of control | T/C (dose: 200.0 mg/kg/injection, schedule: Q01DX005 (ip), vehicle: saline + Tween-80 + alcohol): 100 % of control

CC(NC(=O)C(Cc1ccc(OC(=O)OCc2ccccc2)cc1)NC(=O)OCc1ccccc1)C(=O)OCc1ccccc1 (configuration not stated)
T/C [3]: 96 % of control | T/C [4]: 92 % of control

CC(=O)OCC1OC(n2ccc(=S)[nH]c2=O)C(OC(C)=O)C1OC(C)=O (configuration not stated)
T/C [5]: 93 % of control | T/C [6]: 100 % of control | T/C (dose: 200.0 mg/kg/injection, schedule: Q04DX003 (ip), vehicle: saline with Tween-80): 92 % of control | T/C (dose: 400.0 mg/kg/injection, schedule: Q04DX003 (ip), vehicle: saline with Tween-80): 102 % of control

CN(C)[C@@H]1C(=O)C(C(=O)NCN2CCCCC2)=C(O)[C@@]2(O)C(=O)C3=C(O)c4c(O)cccc4[C@@](C)(O)[C@H]3C[C@@H]12
T/C [3]: 95 % of control | T/C [4]: 95 % of control | T/C [7]: 104 % of control

NC(=S)N/N=C/c1cccc(CC(O)(C(F)(F)F)C(F)(F)F)n1
T/C [8]: 100 % of control | T/C [9]: 87 % of control

CC(C)CC(NC(=O)C(CSC(c1ccccc1)(c1ccccc1)c1ccccc1)NC(=O)OCc1ccccc1)C(=O)NC(C(=O)OC(C)(C)C)C(C)C (stereo not drawn) (Cbz-Cys(Trt)-Leu-Val-OtBu; configuration not given here)
T/C (dose: 60.0 mg/kg/injection, schedule: Q01DX005 (ip), vehicle: Klucel (hydroxypropylcellulose) (HPC)): 96 % of control | T/C (dose: 120.0 mg/kg/injection, schedule: Q01DX005 (ip), vehicle: Klucel (hydroxypropylcellulose) (HPC)): 100 % of control | T/C (dose: 240.0 mg/kg/injection, schedule: Q01DX005 (ip), vehicle: Klucel (hydroxypropylcellulose) (HPC)): 107 % of control

Cc1ccc(NCCN2CCN(CCNc3ccc(C)c4sc5ccccc5c(=O)c34)CC2)c2c(=O)c3ccccc3sc12
T/C (dose: 6.25 mg/kg/injection, schedule: Q01DX005 (ip), vehicle: saline with Tween-80): 106 % of control | T/C (dose: 12.5 mg/kg/injection, schedule: Q01DX005 (ip), vehicle: saline with Tween-80): 98 % of control | T/C (dose: 25.0 mg/kg/injection, schedule: Q01DX005 (ip), vehicle: saline with Tween-80): 105 % of control | T/C [3]: 97 % of control

CCCCCCC(O)Cc1cc(-c2ccccc2)nc(=O)[nH]1 (configuration not stated)
T/C (dose: 15.0 mg/kg/injection, schedule: Q01DX005 (ip), vehicle: saline with Tween-80): 97 % of control | T/C [10]: 87 % of control | T/C [11]: 95 % of control

CC1(C)OCC2CCC=C21 (configuration not stated)
T/C [10]: 92 % of control | T/C [12]: 99 % of control | T/C [11]: 97 % of control

c1ccc(C2=NC(c3ccccc3)=NS(S3=NC(c4ccccc4)=NC(c4ccccc4)=N3)=N2)cc1 (configuration not stated)
T/C [3]: 106 % of control | T/C [4]: 90 % of control | T/C [7]: 88 % of control

CC(C)=CCC(OC(=O)C=C(C)C)c1cc(O)c2c(O)ccc(O)c2c1O.[Mn] (configuration not stated)
T/C (dose: 25.0 mg/kg/injection, schedule: Q01DX001 (ip), vehicle: saline with Tween-80): 111 % of control | T/C (dose: 50.0 mg/kg/injection, schedule: Q01DX001 (ip), vehicle: saline with Tween-80): 108 % of control | T/C (dose: 100.0 mg/kg/injection, schedule: Q01DX001 (ip), vehicle: saline with Tween-80): 111 % of control and 124 % of control | T/C (dose: 200.0 mg/kg/injection, schedule: Q01DX001 (ip), vehicle: saline with Tween-80): 124 % of control

CC(=O)OC12CC[N+]3(C)CCCCC3C1=Nc1ccccc12 (configuration not stated)
T/C (dose: 12.5 mg/kg/injection, schedule: Q01DX009 (ip), vehicle: saline): 110 % of control | T/C (dose: 25.0 mg/kg/injection, schedule: Q01DX009 (ip), vehicle: saline): 99 % of control

O=C(O)C1CN(C(=O)OCC2c3ccccc3-c3ccccc32)CS1 (configuration not stated)
T/C [3]: 94 % of control | T/C [4]: 94 % of control | T/C [7]: 92 % of control

C1=CCONC1
T/C (dose: 50.0 mg/kg/injection, schedule: Q04DX003 (ip), vehicle: saline): 93 % of control | T/C [13]: 104 % of control | T/C [14]: 92 % of control

O=C(O)CCCc1ccc(N(CCO)CCO)cc1
T/C [13]: 114 % of control | T/C [14]: 109 % of control | T/C (dose: 400.0 mg/kg/injection, schedule: Q04DX003 (ip), vehicle: saline): 103 % of control

CC1=C2[C@H]3OC(=O)[C@@H](C)[C@@H]3CC[C@@]2(C)C=C/C1=N\O
T/C [3]: 103 % of control | T/C [4]: 95 % of control | T/C [7]: 96 % of control

O=c1[nH]c2c([N+](=O)[O-])cc(Cl)cc2nc1/C=C(\O)c1ccc(F)cc1
T/C [10]: 101 % of control | T/C [12]: 102 % of control | T/C [11]: 106 % of control

C=CCS(=O)(=O)O
T/C [15]: 100 % of control | T/C [16]: 104 % of control | T/C [17]: 100 % of control

O=C1OC(c2ccc([N+](=O)[O-])cc2)=N/C1=C\c1ccc(Cl)cc1
T/C (dose: 3.13 mg/kg/injection, schedule: Q01DX009 (ip), vehicle: Klucel (hydroxypropylcellulose) (HPC)): 115 % of control | T/C (dose: 6.25 mg/kg/injection, schedule: Q01DX009 (ip), vehicle: Klucel (hydroxypropylcellulose) (HPC)): 115 % of control | T/C (dose: 12.5 mg/kg/injection, schedule: Q01DX009 (ip), vehicle: Klucel (hydroxypropylcellulose) (HPC)): 105 % of control and 88 % of control | T/C (dose: 25.0 mg/kg/injection, schedule: Q01DX009 (ip), vehicle: Klucel (hydroxypropylcellulose) (HPC)): 88 % of control

CCCCCC(Cl)(CC)CCCCC
T/C [15]: 110 % of control | T/C [16]: 108 % of control | T/C [17]: 109 % of control

CS(=O)(=O)c1nnnn1-c1ccccc1
T/C [8]: 106 % of control | T/C [9]: 106 % of control | T/C [5]: 102 % of control and 112 % of control | T/C [6]: 105 % of control

CN=C(N)N/N=C(\C)c1ccc2c(c1)Cc1cccc(Br)c1-2
T/C (dose: 25.0 mg/kg/injection, schedule: Q04DX002 (ip), vehicle: saline with Tween-80): 111 % of control | T/C (dose: 50.0 mg/kg/injection, schedule: Q04DX002 (ip), vehicle: saline with Tween-80): 109 % of control | T/C (dose: 100.0 mg/kg/injection, schedule: Q04DX002 (ip), vehicle: saline with Tween-80): 109 % of control

CCOC(=O)C1=C(O)C[C@]2(O)C3CC=C(C)[C@@H]4CCO[C@](OC)(C[C@H]2C1)[C@]34C(=O)OC (some centres not stated)
T/C [3]: 100 % of control | T/C [4]: 96 % of control

COC(=O)CN(C)P(=O)(N1CC1)N1CC1
T/C (dose: 1.87 mg/kg/injection, schedule: Q01DX005 (ip), vehicle: saline): 107 % of control | T/C (dose: 3.75 mg/kg/injection, schedule: Q01DX005 (ip), vehicle: saline): 124 % of control | T/C (dose: 7.5 mg/kg/injection, schedule: Q01DX005 (ip), vehicle: saline with Tween-80): 198 % of control | T/C (dose: 15.0 mg/kg/injection, schedule: Q01DX005 (ip), vehicle: saline): 197 % of control
